This note sets out measurements from US20230201235A1, “INHIBITION OF NIDOVIRUSES THAT ENCODE NSP15” (The University of Chicago, priority 2020, published 2023).

pIC50: −log10 of the molar value.

In data set [1] the target is T1, Nsp15 (Severe acute respiratory syndrome coronavirus 2, UniProt P0DTD1). The data set is described as follows: Nsp15 differential scanning fluorimetry (DSF) assay. In kind it is binding. As to conditions: 10 μM Nsp15, 1 mM ligand, 10 mM MnCl2; for melting temperature (Tm) of Nsp15 in presence of ligand: same Tm as control. How it is done:
The Nsp15 differential scanning fluorimetry (DSF) assays were performed in a buffer 20 mM Tris pH 7.5, 100 mM NaCl, 1 mM TCEP that was supplemented with SYPRO™ Orange protein gel stain (Invitrogen, Carlsbad, Calif.) to 5× final concentration. 10 μM of the Nsp15 was used with the addition of each of 1 mM of tipiracil, 5′GpU, 5′UMP, 3′UMP, and TMP to get final molar ratio of protein to ligand 1:100. Additionally, the samples with ligands were supplemented with 10 mM MnCl2. After 30 min of incubation of samples at room-temperature, fluorescence measurements were done using CFX CONNECT™ Real-Time System (BioRad, Hercules, Calif.). Fluorescent signal was detected with temperature rate 1° C. per 60 sec. Samples were measured in triplicate, and the representative standard deviation of measurements are depicted for Nsp15 control sample and complex of the Nsp15 with addition of tipiracil.

Data set [2] addresses T2, SARS-CoV-2 Nsp15 (Severe acute respiratory syndrome coronavirus 2, UniProt P0DTD1). The class given is binding. As to conditions: co-crystal structures, Table 1.
Data set [3] deals with T1, Nsp15. The data set is described as follows: Fluorescence-based endoribonuclease assay. The class given is biochemical, SARS-CoV-2. How it is done: The oligonucleotide dArUdAdA with 5′-6-FAM and 3′-6-TAMRA was synthetized by GenScript Biotech (Piscataway, N.J.). The concentration of 0.5 μM substrate was used with 2 μM Nsp15 in a buffer containing 20 mM HEPES at pH 7.8, 100 mM NaCl, and 5 mM MnCl2. Detection of the emission of FAM fluorescence signal was done on CFX CONNECT™ Real-Time System (Bio-Rad Laboratories, Hercules, Calif.).
Cleavage of oligonucleotide dArUdAdA with 5′-6-FAM and 3′-6-TAMRA substrate was tested using polyacrylamide gel electrophoresis. The concentration of labeled substrate was […], and the Nsp15 concentration varied to achieve different molar ratios of substrate to Nsp15. Samples were mixed in a buffer with 20 mM HEPES at pH 7.8, 100 mM NaCl, and 5 mM MnCl2. After 10 minutes of incubation, samples were loaded on NUPAGE Tris-Acetate 3-8% gel, and the electrophoresis was done on 80 V for 1 h. The detection of FAM emission on gel was performed using the Gel DOC™ EZ System (Bio-Rad Laboratories, Hercules, Calif.).

Data set [4] addresses T2, SARS-CoV-2 Nsp15. The data set is described as follows: Radioactivity-based endoribonuclease assay. The class given is biochemical.
In another data set the test system is A549-hACE2 cells. The following applies: 1-50 μM.
A further data set concerns SARS-CoV-2. The data set can be described thus: Whole cell assays: spike protein immunostaining and viral RNA qRT-PCR. In kind it is cell-based. Background: In qPCR the cycle at which signal appears reflects the starting amount.

In the case of `Cc1cn([C@H]2C[C@H](OP(=O)(O)O)[C@@H](CO)O2)c(=O)[nH]c1=O` [3′TMP], on Nsp15 [1], the “melting temperature (Tm) of Nsp15 in presence of ligand” value (“melting temperature (Tm) of Nsp15” for short) is “approximately 60.5 °C”.

Consider `O=c1ccn([C@@H]2O[C@H](CO)[C@@H](OP(=O)(O)O)[C@H]2O)c(=O)[nH]1` [3′UMP, 3′-uridylic acid], for which the “binding to the active site of Nsp15 in the crystal structure” value (shortened to “binding to the active site of Nsp15”) at SARS-CoV-2 Nsp15 [2] was “binds directly in the active site of Nsp15”. Also, the “melting temperature (Tm) of Nsp15” value at Nsp15 [1] is “approximately 60.5 °C”.

In general, pIC50 refers to the negative decadic logarithm of the IC50, by convention in mol/L. For `N=C1CCCN1Cc1[nH]c(=O)[nH]c(=O)c1Cl` [tipiracil, 5-chloro-6-[(2-imino-1-pyrrolidinyl)methyl]-2,4(1H,3H)-pyrimidinedione], the pIC50 is 4.14 against Nsp15 [3] and 5.12 on SARS-CoV-2 Nsp15 [4]. The “inhibition of cleavage reaction at higher Mn2+ concentration” value at SARS-CoV-2 Nsp15 [4] (octamer RNA, higher Mn2+ ion concentration (15 mM MnCl2)) is on record as “no inhibition”. Moreover, the “binding to the active site of Nsp15” value at SARS-CoV-2 Nsp15 [2] was “binds directly in the active site of Nsp15”. The “effect on viability of cells” value in the data set on A549-hACE2 cells was “did not affect the viability of cells”. Besides, the “inhibition of virus (spike protein and RNA expression)” value in the data set on SARS-CoV-2 is given as “modest”. In addition, the “melting temperature (Tm) of Nsp15” value on Nsp15 [1] was “approximately 60.5 °C”. Besides, the “shift of Nsp15 denaturation profile to higher temperatures” value at Nsp15 [1] (versus control) was found to be 0.5 °C.

uridine 2′,3′-vanadate [UV]: the “binding to the active site of Nsp15” value on SARS-CoV-2 Nsp15 [2] is recorded as “binds directly in the active site of Nsp15”.

For the molecule `O=c1ccn([C@@H]2O[C@H](COP(=O)(O)O)[C@@H](O)[C@H]2O)c(=O)[nH]1` [5′UMP, 5′-uridylic acid], the “binding to the active site of Nsp15” value on SARS-CoV-2 Nsp15 [2] was “binds directly in the active site of Nsp15”. The “melting temperature (Tm) of Nsp15” value on Nsp15 [1] is “approximately 60.5 °C”.
